Data reported in US7371555B2, “Polypeptides having α-H-α-amino acid amide racemase activity and nucleic acids encoding the same” (DSM IP Assets B.V., priority 2002, dated 2008).

Key:
[1] = tested on: lyophilized O. anthropi IA cells; test: α-H-α-amino acid amide racemase activity of lyophilized O. anthropi IA cells; type: biochemical, Ochrobactrum anthropi IA; conditions: approximately 72 hours at 40° C., 10 times diluted reaction mixture
Experimental: O. anthropi IA cells were cultivated in Medium A containing DL-α-amino-ε-caprolactam (2 g/l) as sole nitrogen source. After incubation at 28° C. and 200 rpm for three days (OD620 nm=4.7), cells were harvested by centrifugation, washed in 20 mM HEPES-NaOH buffer of pH 7.7 and lyophilized.
The assay mixture consisted of 10 mM HEPES-NaOH buffer (pH 7.7) containing toluene (2,5 v/v %), pyridoxal-5-phosphate (20 μM), D- or L-leucine amide (2.5 m %) and in some cases EDTA (20 mM). Per assay 150 mg of lyophilized cells were used. Chemical blanks (with the assay mixture without the O. anthropi IA cells) were used as a negative control. All reaction mixtures (including the blanks) were incubated for approximately 72 hours at 40° C. before the reaction was stopped by the addition of 9 volumes of 1 M H3PO4. Finally, the reaction mixtures were analyzed by HPLC to determine the concentrations of D- and L-leucine amide and of D- and L-leucine. o-Phthaldehyde in combination with D-3-mercapto-2-methylpropionic acid was used in this HPLC method as a chiral reagent for the enantioseparation of these amino compounds (Duchateau, et al., J. Chromatogr. (1992) 623:237-245).
In a number of reactions EDTA was added to inhibit L- and/or D-specific amidase(s) present in the O. anthropi IA cells.
Without EDTA, amidases convert the substrate and/or product α-H-α-amino acid amides into α-H-α-amino acids thereby preventing direct detection of the other α-H-α-amino acid amide enantiomer as racemization product. […] Formation of L-leucine from D-leucine amide could not be detected in the chemical blank.

[2] = tested on: E. coli DH10B/pOA(1)PLV49B10 cells containing the α-H-α-amino acid amide racemase gene from Ochrobactrum anthropi IA; test: Racemase activity test with D-leucine amide and whole E. coli cells (Example 5); type: cell-based; conditions: Strain A
Experimental: A single colony of E. coli DH10B containing plasmid pOA(1)PLV49B10 was transferred to LB medium with kanamycin (50 mg/l) to prepare a pre-culture. After overnight incubation at 28° C. and 200 rpm, this pre-culture was used to inoculated a flask with 500 ml of 2*TY medium (10 g/l Yeast extract, 16 g/l Tryptone, 5 g/l NaCl) containing kanamycin (50 mg/l). After overnight growth at 28° C. (OD620nm=4.4) and 200 rpm, cells were harvested by centrifugation (15 min. at 6,200×g, 4° C.), and washed with 50 mM HEPES-NaOH buffer of pH 7.7.
The cell pellets from both cultures were subsequently washed and resuspended in 25 ml of 50 mM HEPES-NaOH buffer, pH 7.7. Aliquots of 2 ml of both cell suspensions were centrifuged once more and the pellets were stored at −20° C. until execution of the activity tests described below. The remaining part of these cell suspensions was stored at −20° C. for use in Example 6.
To determine the activity of E. coli/pOA(1)PLV49B10 and the E. coli control, the above-mentioned cell pellets were thawed and resuspended to a total volume of 1 ml with 50 mM HEPES-NaOH buffer, pH 7.7. Then, reaction mixtures of 10 ml each were prepared containing 50 mM HEPES-NaOH buffer (pH 7.7), 10 μM pyridoxal-5-phosphate (PLP), 2.5 wt % of D-leucine amide, if applicable 20 mM of EDTA to suppress the E. coli amidase activity, and 0.5 ml of the E. coli/pOA(1)PLV49B10 and E. coli DH10B/pZErO-GFPuv-wrong-orientation cell suspensions or water (for chemical blanks). Reactions were started by the addition of the cells. Reaction mixtures were incubated at 30° C. and 175 rpm. Directly after addition of the cells (t=0 hours) and after 27 and 43 hours samples were taken in which the reaction was stopped by removal of the cells via centrifugation followed by 0.22 μM filtration. Finally, the filtered samples were stored at −20° C. until analysis by chiral HPLC as described below: • column: Sumichiral OA5000 from Sumika (150×4.6 mm I.D., 5μ)+guard column • eluent: 85 v/v % 2 mM CuSO4+15 v/v % methanol • flow: 1.0 ml/min. • column temp.: 40° C. • inj. volume: 5 μl • detection: fluorescence detection after post-column reaction with o-phthalaldehyde and 2-mercaptoethanol (wavelength ex=338 nm and em>420 nm)

[3] = tested on: E. coli clone containing the O. anthropi IA α-H-α-amino acid amide racemase gene (pOa(1)PLV49B10); test: Confirmation of potential positive clone of the O. anthropi IA gene library; type: cell-based, Ochrobactrum anthropi IA; conditions: 70 mM substrate, 20 h at 30° C.
Experimental: Of all 32 potential positive clones identified in the screening, material from the masterplates was used to inoculate 3 ml of liquid screening medium containing 50 mg/l kanamycin. After growth for 2 days at 30° C., cells were collected by centrifuging 2 ml of these cell cultures. Then the cell pellets were washed four times in 25 mM Tris-HCl buffer, pH 7.5. Subsequently, the cell pellets were resuspended in 100 μl substrate solution containing 70 mM of D-phenylalanine amide, or D-leucine amide, or D-valine amide in 50 mM Tris-HCl, pH 7.5 and 1 mM MnCl2. After incubation for 20 h at 30° C., the reactions were stopped by the addition of 100 μl of 0.15 M HCl, after which the reaction mixtures were analyzed by the HPLC method described in Example 1.
This clone contained the O. anthropi IA α-H-α-amino acid amide racemase gene on its 7.7 kb plasmid. This was concluded from the fact that transformation of this plasmid into E. coli TOP10 cells inevitably led to recombinant cells that converted D-leucine amide into L-Leucine. […] The sequence of this gene is listed as nucleotides 98 to 1417 (including the TAA stopcodon) of SEQ ID NO:1 encoding the protein of SEQ ID: NO. 2 as presented infra.

[4] = with 20 mM EDTA, incubation time 27 h
[5] = with 20 mM EDTA, incubation time 43 h
[6] = without 20 mM EDTA, incubation time 27 h
[7] = without 20 mM EDTA, incubation time 43 h

## CC(C)C[C@@H](N)C(N)=O [D-leucine amide]
[1]; with EDTA (20 mM)
  D-leucine: 0.007 m %
  D-leucine amide: 0.24 m %
  L-leucine: 0.008 m %
  L-leucine amide: 0.032 m %
[1]; without EDTA
  D-leucine: 0.015 m %
  D-leucine amide: 0.22 m %
  L-leucine: 0.044 m %
  L-leucine amide: <0.001 m %
[2]; with 20 mM EDTA, incubation time 0 h
  D-leucine amide: 2.61 wt %
[2]; [4]
  D-leucine: 0.003 wt %
  D-leucine amide: 1.77 wt %
  L-leucine: 0.313 wt %
  L-leucine amide: 0.555 wt %
[2]; [5]
  D-leucine: 0.006 wt %
  D-leucine amide: 1.59 wt %
  L-leucine: 0.345 wt %
  L-leucine amide: 0.772 wt %
[2]; without 20 mM EDTA, incubation time 0 h
  D-leucine amide: 2.63 wt %
[2]; [6]
  D-leucine: 0.009 wt %
  D-leucine amide: 1.03 wt %
  L-leucine: 1.71 wt %
  L-leucine amide: 0.170 wt %
[2]; [7]
  D-leucine: 0.017 wt %
  D-leucine amide: 0.512 wt %
  L-leucine: 2.12 wt %
  L-leucine amide: 0.063 wt %
[3]
  formation of L-leucine from D-leucine amide: significant formation of L-leucine
